How the values were obtained:
Experiment in all cases: relative viability (nuclei count vs DMSO), 5 days (fraction); higher = more cells survive
SW 900 = system: SW 900
Outline: (§1)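 Cells from lung cancer lines were seeded into 1536-well plates and, one day later, dosed by pin tool. Treatments were either a single drug or a fixed dose of an anchor drug with five library-drug doses (not always all listed) in √10 steps. After 5 days, nuclei were stained in a one-step fixation (final 0.05% Triton X-100, 1% formaldehyde, 1 ug/ml Hoechst) and counted on 4× images, and relative viability is the treated-to-vehicle nuclei ratio, as the median of duplicate plates.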

NCI-H2023 = system: NCI-H2023
Outline: as §1

NCI-H647 = system: NCI-H647
Outline: as §1

NCI-H2405 = system: NCI-H2405
Outline: as §1

PC-14 = system: PC-14
Outline: as §1

NCI-H1734 = system: NCI-H1734
Outline: as §1

NCI-H2347 = system: NCI-H2347
Outline: as §1

EPLC-272H = system: EPLC-272H
Outline: as §1

201T = system: 201T
Outline: as §1

COR-L23 = system: COR-L23
Outline: as §1

NCI-H2170 = system: NCI-H2170
Outline: as §1

UMC-11 = system: UMC-11
Outline: as §1

NCI-H1793 = system: NCI-H1793
Outline: as §1

NCI-H3122 = system: NCI-H3122
Outline: as §1

HCC-15 = system: HCC-15
Outline: as §1

NCI-H520 = system: NCI-H520
Outline: as §1

NCI-H322M = system: NCI-H322M
Outline: as §1

LOU-NH91 = system: LOU-NH91
Outline: as §1

NCI-H1650 = system: NCI-H1650
Outline: as §1

H3255 = system: H3255
Outline: as §1

NCI-H441 = system: NCI-H441
Outline: as §1

Compound: Cc1sc2c(c1C)C(c1ccc(Cl)cc1)=N[C@@H](CC(=O)OC(C)(C)C)c1nnc(C)n1-2 [JQ1] + Cc1cc(Nc2cc(N3CCN(C)CC3)nc(Sc3ccc(NC(=O)C4CC4)cc3)n2)n[nH]1 [Tozasertib] (partner 0.1 µM)
- relative viability (SW 900; first compound 0.04 µM): 0.647
- relative viability (SW 900; first compound 0.1265 µM): 0.641
- relative viability (SW 900; first compound 0.4 µM): 0.421
- relative viability (SW 900; first compound 1.265 µM): 0.297
- relative viability (SW 900; first compound 4 µM): 0.227
- relative viability (NCI-H2023; first compound 0.04 µM): 0.354
- relative viability (NCI-H2023; first compound 0.1265 µM): 0.308
- relative viability (NCI-H2023; first compound 0.4 µM): 0.186
- relative viability (NCI-H2023; first compound 1.265 µM): 0.1
- relative viability (NCI-H2023; first compound 4 µM): 0.0918
- relative viability (NCI-H647; first compound 0.04 µM): 0.353
- relative viability (NCI-H647; first compound 0.1265 µM): 0.203
- relative viability (NCI-H647; first compound 0.4 µM): 0.202
- relative viability (NCI-H647; first compound 1.265 µM): 0.0994
- relative viability (NCI-H647; first compound 4 µM): 0.0445
- relative viability (NCI-H2405; first compound 0.04 µM): 0.716
- relative viability (NCI-H2405; first compound 0.1265 µM): 0.712
- relative viability (NCI-H2405; first compound 0.4 µM): 0.723
- relative viability (NCI-H2405; first compound 1.265 µM): 0.584
- relative viability (NCI-H2405; first compound 4 µM): 0.498
- relative viability (PC-14; first compound 0.04 µM): 0.593
- relative viability (PC-14; first compound 0.1265 µM): 0.385
- relative viability (PC-14; first compound 0.4 µM): 0.314
- relative viability (PC-14; first compound 1.265 µM): 0.125
- relative viability (PC-14; first compound 4 µM): 0.0518
- relative viability (NCI-H1734; first compound 0.04 µM): 0.259
- relative viability (NCI-H1734; first compound 0.1265 µM): 0.209
- relative viability (NCI-H1734; first compound 0.4 µM): 0.215
- relative viability (NCI-H1734; first compound 1.265 µM): 0.204
- relative viability (NCI-H1734; first compound 4 µM): 0.212
- relative viability (NCI-H2347; first compound 0.04 µM): 0.539
- relative viability (NCI-H2347; first compound 0.1265 µM): 0.554
- relative viability (NCI-H2347; first compound 0.4 µM): 0.489
- relative viability (NCI-H2347; first compound 1.265 µM): 0.308
- relative viability (NCI-H2347; first compound 4 µM): 0.237
- relative viability (EPLC-272H; first compound 0.04 µM): 0.418
- relative viability (EPLC-272H; first compound 0.1265 µM): 0.24
- relative viability (EPLC-272H; first compound 0.4 µM): 0.373
- relative viability (EPLC-272H; first compound 1.265 µM): 0.257
- relative viability (EPLC-272H; first compound 4 µM): 0.258
- relative viability (201T; first compound 0.04 µM): 0.971
- relative viability (201T; first compound 0.1265 µM): 0.651
- relative viability (201T; first compound 0.4 µM): 0.613
- relative viability (201T; first compound 1.265 µM): 0.566
- relative viability (201T; first compound 4 µM): 0.383
- relative viability (COR-L23; first compound 0.04 µM): 0.217
- relative viability (COR-L23; first compound 0.1265 µM): 0.148
- relative viability (COR-L23; first compound 0.4 µM): 0.154
- relative viability (COR-L23; first compound 1.265 µM): 0.11
- relative viability (COR-L23; first compound 4 µM): 0.109
- relative viability (NCI-H2170; first compound 0.04 µM): 0.711
- relative viability (NCI-H2170; first compound 0.1265 µM): 0.64
- relative viability (NCI-H2170; first compound 0.4 µM): 0.467
- relative viability (NCI-H2170; first compound 1.265 µM): 0.352
- relative viability (NCI-H2170; first compound 4 µM): 0.194
- relative viability (UMC-11; first compound 0.04 µM): 0.214
- relative viability (UMC-11; first compound 0.1265 µM): 0.192
- relative viability (UMC-11; first compound 0.4 µM): 0.173
- relative viability (UMC-11; first compound 1.265 µM): 0.175
- relative viability (UMC-11; first compound 4 µM): 0.162
- relative viability (NCI-H1793; first compound 0.04 µM): 0.355
- relative viability (NCI-H1793; first compound 0.1265 µM): 0.316
- relative viability (NCI-H1793; first compound 0.4 µM): 0.282
- relative viability (NCI-H1793; first compound 1.265 µM): 0.185
- relative viability (NCI-H1793; first compound 4 µM): 0.226
- relative viability (NCI-H3122; first compound 0.04 µM): 0.353
- relative viability (NCI-H3122; first compound 0.4 µM): 0.189
- relative viability (NCI-H3122; first compound 1.265 µM): 0.0696
- relative viability (NCI-H3122; first compound 4 µM): 0.0737
- relative viability (HCC-15; first compound 0.04 µM): 0.417
- relative viability (HCC-15; first compound 0.4 µM): 0.314
- relative viability (HCC-15; first compound 1.265 µM): 0.119
- relative viability (HCC-15; first compound 4 µM): 0.0896
- relative viability (NCI-H520; first compound 0.04 µM): 0.508
- relative viability (NCI-H520; first compound 0.1265 µM): 0.406
- relative viability (NCI-H520; first compound 0.4 µM): 0.332
- relative viability (NCI-H520; first compound 1.265 µM): 0.296
- relative viability (NCI-H520; first compound 4 µM): 0.25
- relative viability (NCI-H322M; first compound 0.04 µM): 0.445
- relative viability (NCI-H322M; first compound 0.1265 µM): 0.443
- relative viability (NCI-H322M; first compound 0.4 µM): 0.427
- relative viability (NCI-H322M; first compound 1.265 µM): 0.362
- relative viability (NCI-H322M; first compound 4 µM): 0.375
- relative viability (LOU-NH91; first compound 0.04 µM): 0.653
- relative viability (LOU-NH91; first compound 0.1265 µM): 0.453
- relative viability (LOU-NH91; first compound 0.4 µM): 0.255
- relative viability (LOU-NH91; first compound 1.265 µM): 0.359
- relative viability (LOU-NH91; first compound 4 µM): 0.299
- relative viability (NCI-H1650; first compound 0.04 µM): 0.355
- relative viability (NCI-H1650; first compound 0.1265 µM): 0.289
- relative viability (NCI-H1650; first compound 0.4 µM): 0.284
- relative viability (NCI-H1650; first compound 1.265 µM): 0.124
- relative viability (NCI-H1650; first compound 4 µM): 0.135
- relative viability (H3255; first compound 0.04 µM): 0.65
- relative viability (H3255; first compound 0.1265 µM): 0.625
- relative viability (H3255; first compound 0.4 µM): 0.64
- relative viability (H3255; first compound 1.265 µM): 0.426
- relative viability (H3255; first compound 4 µM): 0.204
- relative viability (NCI-H441; first compound 0.04 µM): 0.629
- relative viability (NCI-H441; first compound 0.1265 µM): 0.66
- relative viability (NCI-H441; first compound 0.4 µM): 0.631
- relative viability (NCI-H441; first compound 1.265 µM): 0.417
- relative viability (NCI-H441; first compound 4 µM): 0.219

— the supplement of paper PMC10307832
